The results in this text go back to US20210130420A1, “RECOMBINANT BINDING PROTEINS TARGETING HER2 AND SERUM ALBUMIN, AND THEIR USES” (Molecular Partners AG, priority 2016, published 2021).

Experiment [1] relates to HER1/EGFR. Kind of experiment: Phosphorylation state ELISA, BT474 cells. Format: cell-based, human. The conditions noted are these: 100 nM, 18 hours. (In general: An ELISA detects its analyte on a solid surface through an enzyme-linked reagent.)
For experiment [2], the system named is AKT. The experiment is described as follows: Phospho-site specific ELISA, BT474 cells. Format: cell-based, human. Particulars: 100 nM, 18 hours.
Experiment [3] has as its system Foxo3a protein. The experiment is described as follows: Cellular levels of Foxo3a protein in BT474 cells. The format is cell-based, human. The conditions noted are these: compared to an exposure to PBS only. The source says:
(§1) Protein #21 was expressed and purified as described in Example 1. […] Cells were then subjected to a phospho-proteome mass-spectrometry analysis as described by Britton, D., et al. (Britton, D., Zen, Y., Quaglia, A., Selzer, S., Mitra, VI., Lössner, C., Jung, S., Bohm, G., Schmid, P., Prefot, P., Hoehle, C., Koncarevic, S., Gee, J., Nicholson, R., Ward, M., Castellano, L., Stebbing, J., Zucht, H. D., Sarker, D., Heaton, N., and Pike, I., 2014. PLOS One 9 (3), e90948).
(§2) It is known to the practitioner in the art, that Akt1 phosphorylates Foxo3a, resulting in the degradation of Foxo3a and promotion of cell survival. Inhibition of Act phosphorylation leads to stabilization of Foxo3a and thus increase in Foxo3a levels. At increased levels Foxo3a can translocate to the nucleus and induce apoptosis.

For experiment [4], the system named is Foxo3a protein. Kind of experiment: Cellular levels of Foxo3a protein in NCI-N87 cells. Format: cell-based. Particulars: compared to an exposure to PBS only.
From the text: as §1, §2

Experiment [5] has as its system HER3. The experiment is described as follows: Phosphorylation state ELISA, BT474 cells. Format: cell-based, human. The conditions noted are these: 100 nM, 18 hours.
For experiment [6], the system named is RAF. Kind of experiment: Phospho-proteome mass spectrometry of BT474 cells. The format is cell-based, human. The conditions noted are these: 100 nM, 18 hours.
From the text: as §1

The subject of experiment [7] is AKT. Kind of experiment: Phospho-proteome mass spectrometry of BT474 cells. The format is cell-based, human. Particulars: 100 nM, 18 hours.
From the text: as §1

Experiment [8] concerns mTOR. Kind of experiment: Phospho-proteome mass spectrometry of BT474 cells. The conditions noted are these: 100 nM, 18 hours. The format is cell-based, human.
From the text: as §1

The subject of experiment [9] is RPS6KB1/S6 Kinase. The experiment is described as follows: Phospho-proteome mass spectrometry of BT474 cells. Format: cell-based, human. Particulars: 100 nM, 18 hours.
From the text: as §1

The test system of experiment [10] is GXA3039. Kind of experiment: Gastric cancer patient derived tumor xenograft mouse model GXA3039. Particulars: GXA3039, FIG. 4D; Protein #21 60 mg/kg, antibodies 10 mg/kg, every three days for 6 times. Format: in vivo. The protocol: Further, Protein #21 was expressed and purified as described in Example 1. […] All groups were dosed every three days for 6 times. Briefly, tumor fragments were obtained from xenografts in serial passage in nude mice. After removal from donor mice, tumors were cut into fragments (4-5 mm diameter) for subcutaneous implantation. Mice were randomized into groups when tumors reached a volume of approximately 100-120 mm^3. The day of randomization and treatment initiation is designated as day 0 in each experiment. Tumor growth was monitored by two-dimensional measurement with a caliper on the day of randomization and then twice weekly. Relative volumes of individual tumors (individual RTVs) for Day x were calculated by dividing the individual tumor volume on Day x (Tx) by the individual volume of the same tumor on Day 0 (TO) multiplied by 100%. Tumor inhibition for a particular day (T/C in %) was calculated from the ratio of the median RTV values of test versus control groups multiplied by 100%.
A general note: Xenograft models place foreign cells or tissue in a host animal.

Experiment [11] relates to BT474 cells. Kind of experiment: Induction of apoptosis, Caspase 3/7 activation. Particulars: FIG. 7. The format is cell-based, human.
Method: Briefly, 10000 BT474 cells were seeded per well in a 96 well plate in100 μl complete medium and incubated for 24 hours. […] Caspase Glo reagent was added according to the manufactures protocol for 1 hour. Caspase 3/7 activation was monitored by measuring luciferase activity. Alternatively induction of apoptosis was determined using the Cell Death Detection [sequence] system (Roche, Switzerland). The assay was performed according to the manufactures protocol. Cell number and incubations times were similar to the Caspase Glo readout. Data were analyzed using the GraphPad prism software, plotting concentration on the x-axis against OD405/490 nm or relative light units (RLU; measured on a Tecan M-1000 reader) on the y-axis. Data were fitted using a non-linear regression fit (log(agonist) vs. response—Variable slope (four parameters)).

Pertuzumab [reference compound]: the “HER1/EGFR Pan-Phospho-Tyrosine” value in experiment [1] is reported as 0.68 fold change to PBS. The “AKT S473 phosphorylation” value in experiment [2] was 0.73 fold change to PBS. For the same substance, the “increase of cellular levels of Foxo3a protein” value in experiment [3] is 1.21 fold. Also, the “increase of cellular levels of Foxo3a protein” value in [4] turned out to be 1.25 fold. Besides, in [5], the “HER3 Pan-Phospho-Tyrosine” value is listed as 0.78 fold change to PBS. For the same substance, in [6], the “RAF S642 phosphorylation” value is listed as 1.2 fold change to PBS and the “RAF T631/T638/T640/T641/S642 phosphorylation” value is reported as 1.01 fold change to PBS. Moreover, in experiment [7], the “AKT S124 phosphorylation” value is recorded as 1.04 fold change to PBS and the “AKT S129 phosphorylation” value is listed as 1.16 fold change to PBS. The “mTOR S2448/S2454 phosphorylation” value in [8] is recorded as 1.09 fold change to PBS. In addition, in experiment [9], the “RPS6KB1/S6Kinase S441/T444/S447 phosphorylation” value is 1.02 fold change to PBS and the “RPS6KB1/S6Kinase T444/S447 phosphorylation” value is recorded as 1.04 fold change to PBS. In addition, in experiment [10], the “inhibition of tumor growth, second experiment” value was “significantly less efficacious”. Moreover, the “induction of apoptosis in BT474 cells” value in experiment [11] is reported as “did not induce apoptosis”.
